Measurements as given in article PMC6627510, “The Role of a Key Amino Acid Position in Species-Specific Proteinaceous dUTPase Inhibition” (Biomolecules, 2019).

Assays:
Format in all cases: binding
E. coli dUTPase (EcDUT) [1] = biological target: T1, E. coli dUTPase (EcDUT) (Escherichia coli, UniProt P06968, Q94H, form not given); assay: X-ray crystallography, […] Å; conditions: 5 mM dUPNPP, Mg2+, pH 7.5; active site; non-hydrolysable substrate analogue
T1 construct: gene dut; expressed in E. coli BL21(DE3) Rosetta; homotrimer; C-terminal residues R150, Q151

E. coli dUTPase (EcDUT) [2] = biological target: T2, E. coli dUTPase (EcDUT) (Escherichia coli, UniProt P06968, Q94R/F146W, form not given); assay: tryptophan fluorescence; conditions: 3 µM enzyme, 100 µM dUPNPP, 5 mM MgCl2, pH 7.5, 293 K; active site
T2 construct: gene dut; expressed in E. coli BL21(DE3) Rosetta; homotrimer; C-terminal residues R150, Q151

E. coli dUTPase (EcDUT) [3] = biological target: T3, E. coli dUTPase (EcDUT) (Escherichia coli, UniProt P06968, Q94H/F146W, form not given); assay: tryptophan fluorescence; acrylamide quenching; conditions: 3 µM enzyme, 100 µM dUPNPP, 5 mM MgCl2, pH 7.5, 293 K; active site; quenching with 4 µM enzyme, 1.5 mM dUPNPP
T3 construct: gene dut; expressed in E. coli BL21(DE3) Rosetta; homotrimer; C-terminal residues R150, Q151

E. coli dUTPase (EcDUT) [4] = biological target: T4, E. coli dUTPase (EcDUT) (Escherichia coli, UniProt P06968, F146W, form not given); assay: tryptophan fluorescence; acrylamide quenching; conditions: 3 µM enzyme, 100 µM dUPNPP, 5 mM MgCl2, pH 7.5, 293 K; active site; quenching with 4 µM enzyme, 1.5 mM dUPNPP
T4 construct: gene dut; expressed in E. coli BL21(DE3) Rosetta; homotrimer; C-terminal residues R150, Q151

Structure (SMILES): O=c1ccn([C@H]2C[C@H](O)[C@@H](COP(=O)(O)NP(=O)(O)OP(=O)(O)O)O2)c(=O)[nH]1 [dUPNPP]
- X-ray crystallography, 1.8 Å (E. coli dUTPase (EcDUT) [1]): we crystallized the EcDUT^Q93H dUTPase mutant in the presence of the non-hydrolysable substrate analogue dUPNPP
- tryptophan fluorescence (E. coli dUTPase (EcDUT) [2]): allowed us to follow substrate analogue and Stl binding of the three arm-tryptophan mutant enzyme
- tryptophan fluorescence; acrylamide quenching (E. coli dUTPase (EcDUT) [3]): allowed us to follow substrate analogue and Stl binding of the three arm-tryptophan mutant enzyme
- tryptophan fluorescence; acrylamide quenching (E. coli dUTPase (EcDUT) [4]): allowed us to follow substrate analogue and Stl binding of the three arm-tryptophan mutant enzyme
